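The compound was tested at five concentrations on cells cultured in 96-well plates, with a 48-hour exposure period. Abbreviation: GI50, concentration required for 50% inhibition of growth.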 Activity calls are given as the source filed them. Cut-off read from the data, not from the text of the source: active = GI50 up to about 1.1 µM and inactive = higher.

Holding throughout (test): NCI-60 cell line screen, 48 h
Experiment [1] has as its system CAKI-1.
Experiment [2] concerns OVCAR-8.
In experiment [3] the test system is LXFL 529.
Experiment [4] relates to Malme-3M.
For experiment [5], the system named is HT-29.
Experiment [6] has as its system HCC 2998.
Experiment [7] relates to ACHN.
The test system of experiment [8] is A549.
Experiment [9] relates to IGROV-1.
Experiment [10] concerns M14.
The test system of experiment [11] is SW-620.
Experiment [12] concerns NCI-H23.
Experiment [13] concerns OVCAR-4.
The subject of experiment [14] is 786-0.
The subject of experiment [15] is SN12C.
Experiment [16] has as its system K562.
Experiment [17] relates to SF-295.
Experiment [18] deals with T47D.
Experiment [19] has as its system MCF7.
Experiment [20] relates to Hs-578T.

Consider `O=C(/C=C/c1cccc2ccccc12)c1ccccc1Cl`, for which the GI50 was 14.4 µM (inactive) in experiment [1]; 13.6 µM (inactive) in [2]; 13.8 µM (inactive) in experiment [3]; 16.4 µM (inactive) in experiment [4]; 13.6 µM (inactive) in [5]; 15.2 µM (inactive) in [6]. In addition, the GI50 was 17.5 µM (inactive) in experiment [7]; 25.8 µM (inactive) in [8]; 16.6 µM (inactive) in [9]; 15.5 µM (inactive) in experiment [10]; 5.58 µM (inactive) in experiment [11]; 14.3 µM (inactive) in experiment [12]. Besides, the GI50 was 15.1 µM (inactive) in experiment [13], 14 µM (inactive) in experiment [14], > 100 µM (inactive) in [15] and 5.57 µM (inactive) in experiment [16].

With `Cc1ccc(NC(=O)CC(=O)n2nc(-c3ccccc3)c(/N=N/c3ccccc3Cl)c2-c2ccccc2)cc1`, the GI50 in experiment [1] was 42.6 µM (inactive); in experiment [2] it was 42.5 µM (inactive); in [3] it was 71.8 µM (inactive); in experiment [4], 48.3 µM (inactive); in experiment [5], > 10 µM (inactive); in experiment [6], > 10 µM (inactive). For the same compound, the GI50 is 49.9 µM (inactive) in experiment [7]; 98.2 µM (inactive) in experiment [8]; > 10 µM (inactive) in [9]; 88.3 µM (inactive) in [10]; 48 µM (inactive) in [17]; 92 µM (inactive) in experiment [11]. Also, the GI50 in experiment [12] is 39.5 µM (inactive); in [13], 26.5 µM (inactive); in experiment [14], 32.6 µM (inactive); in experiment [15], > 10 µM (inactive); in experiment [16], 94.8 µM (inactive).

As for `Cc1nc(-n2nc(-c3ccccc3)cc2-c2ccccc2)sc1C(/C=C\c1ccc([N+](=O)[O-])cc1)=N/NC(=S)NN`, the GI50 in experiment [18] is 24.9 µM (inactive); in [1], > 42.5 µM (inactive); in experiment [2] it was 16.7 µM (inactive); in experiment [3], 47.3 µM (inactive); in [4], > 58.6 µM (inactive); in [5] it was 30.6 µM (inactive). The GI50 in experiment [6] is 13.8 µM (inactive); in experiment [7], 40.3 µM (inactive); in experiment [19], 15.4 µM (inactive); in experiment [8], 18.7 µM (inactive); in experiment [20] it was 25 µM (inactive); in [9], 40.7 µM (inactive). In addition, the GI50 in experiment [10] is 34.4 µM (inactive); in [17], 13.8 µM (inactive); in [11] it was > 74 µM (inactive); in experiment [12], 22.1 µM (inactive); in [13] it was 26.2 µM (inactive); in experiment [14] it was 22.9 µM (inactive). In addition, the results for the GI50 in [15] and in experiment [16] were 21.7 µM (inactive) and > 56.6 µM (inactive), respectively.

As for `C=CC(=O)NCNC(=O)C=C`, the GI50 in experiment [1], in experiment [2], in [3], in experiment [4], in [5] and in [6] was > 100 µM (inactive) each time. Moreover, the GI50 in [7], in experiment [8], in [9], in experiment [10], in experiment [17] and in [11] was > 100 µM (inactive) in each case. Also, the GI50 in experiment [12], in [13], in experiment [14], in experiment [15] and in experiment [16] was > 100 µM (inactive) each time.

With `CCOC(=O)C1=C(C(=O)OCC)C2(c3ccccc3)N(O1)c1ccccc1C2(C)C` (stereo not given), the GI50 in experiment [1] is 26.7 µM (inactive); in experiment [2], 48.3 µM (inactive); in experiment [3], 36.1 µM (inactive); in [4], 52.2 µM (inactive); in experiment [5], 69.3 µM (inactive); in experiment [6], 93.1 µM (inactive). For the same compound, the GI50 was 45.5 µM (inactive) in [8]; 41.8 µM (inactive) in experiment [9]; 38.5 µM (inactive) in [10]; 45.5 µM (inactive) in experiment [17]; 94.8 µM (inactive) in experiment [11]; 30 µM (inactive) in [12]. Besides, the GI50 in experiment [13] is 18.7 µM (inactive); in [14], 75.7 µM (inactive); in [16], 42.7 µM (inactive).

Consider `NS(=O)(=O)c1ccc(NC(=O)CC(=O)Nc2ccc(S(N)(=O)=O)cc2)cc1`, for which the GI50 in experiment [1], in [2], in [3], in experiment [4], in experiment [5] and in [6] was > 100 µM (inactive) throughout. Besides, the GI50 in experiment [7], in experiment [8], in experiment [9], in experiment [10], in experiment [17] and in [11] was > 100 µM (inactive) throughout. For the same compound, the GI50 in experiment [12], in experiment [13], in experiment [14], in [15] and in experiment [16] was > 100 µM (inactive) each time.

In the case of `CCOC(=O)C(Cc1ccccc1)NC(=O)OC(C)(C)C` (stereo not given), the GI50 was > 10 µM (inactive) in [1]; > 100 µM (inactive) in experiment [2]; > 100 µM (inactive) in experiment [3]; > 100 µM (inactive) in experiment [4]; > 100 µM (inactive) in experiment [5]; > 100 µM (inactive) in [6]. The GI50 in [7], in [8], in experiment [9], in experiment [10], in experiment [17] and in experiment [11] was > 100 µM (inactive) throughout. In addition, the GI50 in experiment [12], in experiment [14], in [15] and in experiment [16] was > 100 µM (inactive) throughout.

Take `NC(=O)c1csc(C2CCC(CO)O2)n1` (stereo not given): the GI50 in experiment [1], in experiment [2], in experiment [3], in [4], in experiment [5] and in experiment [6] was > 100 µM (inactive) each time. In addition, the GI50 in experiment [7], in experiment [8], in [9], in experiment [10], in [17] and in [11] was > 100 µM (inactive) each time. Further, the GI50 in experiment [12], in experiment [13], in [14], in [15] and in experiment [16] was > 100 µM (inactive) throughout.

On to `CC[n+]1c(/C=C/c2ccc(N(CCCl)CCCl)cc2)ccc2cc(Br)ccc21`, for which the GI50 in experiment [1] is 2.62 µM (inactive); in experiment [2] it was 1.86 µM (inactive); in experiment [3] it was 0.67 µM (active); in [4] it was 1.13 µM (inactive); in experiment [5], 2.86 µM (inactive); in experiment [6], 1.38 µM (inactive). Further, the GI50 is 3.17 µM (inactive) in experiment [7]; 3.52 µM (inactive) in experiment [8]; 0.574 µM (active) in experiment [9]; 1.87 µM (inactive) in [10]; 2.65 µM (inactive) in experiment [17]; 1.93 µM (inactive) in [11]. The GI50 is 2.79 µM (inactive) in experiment [12]; 1.01 µM (active) in experiment [13]; 1.84 µM (inactive) in experiment [14]; 2.48 µM (inactive) in experiment [15]; 0.361 µM (active) in experiment [16].

For the compound `CCN(CC)CC(=O)Nc1ccc2c(c1)C(=O)c1ccc(NC(=O)CN(CC)CC)cc1C2=O`, the GI50 is 70.1 µM (inactive) in experiment [1]; 29.5 µM (inactive) in experiment [2]; 22.8 µM (inactive) in experiment [3]; 30.5 µM (inactive) in experiment [5]; > 100 µM (inactive) in experiment [6]; 25.5 µM (inactive) in [7]. The GI50 in experiment [8] was 27.9 µM (inactive); in experiment [9], 17.7 µM (inactive); in experiment [10] it was 19.7 µM (inactive); in [17], 39 µM (inactive); in [11], 24.9 µM (inactive); in experiment [12], 77.6 µM (inactive). Besides, the GI50 in [13] was 39.1 µM (inactive); in [14], 18.9 µM (inactive); in [15], 20.1 µM (inactive); in [16], 24.7 µM (inactive).

On to `c1ccc(SC2CCSc3ccccc3C2Sc2ccccc2)cc1` (stereo not given), for which the GI50 in experiment [1] is 22.8 µM (inactive); in experiment [2] it was > 100 µM (inactive); in [3], > 100 µM (inactive); in experiment [5], 69.2 µM (inactive); in [6], > 100 µM (inactive); in [7], > 100 µM (inactive). For the same compound, the GI50 in experiment [8] was > 100 µM (inactive); in experiment [9] it was > 10 µM (inactive); in experiment [10], > 100 µM (inactive); in [17], 35.2 µM (inactive); in experiment [11], > 100 µM (inactive); in [13], > 100 µM (inactive). Besides, the GI50 in experiment [14], in [15] and in experiment [16] was > 100 µM (inactive) throughout.

`COc1cc(CNc2nc3c(N)cc(C(F)(F)F)cc3nc2-c2ccccc2)cc(OC)c1OC`: the GI50 is > 10 µM (inactive) in [1]; 71.1 µM (inactive) in experiment [2]; 25.6 µM (inactive) in [3]; 40 µM (inactive) in experiment [4]; 13.4 µM (inactive) in experiment [5]; 40.6 µM (inactive) in experiment [6]. Besides, the GI50 in experiment [7] is 23.7 µM (inactive); in experiment [8] it was 19 µM (inactive); in [9], > 10 µM (inactive); in experiment [10] it was 47.1 µM (inactive); in experiment [17], 37.7 µM (inactive); in experiment [11] it was 85.1 µM (inactive). Besides, the GI50 in experiment [12] is 19 µM (inactive); in experiment [13], 8.95 µM (inactive); in [14], 88.3 µM (inactive); in [15], 70.3 µM (inactive); in experiment [16] it was 12.1 µM (inactive).
